The test system of one series is Canidae. The following applies: chronic; duration: 1 years; oral; Dog Other; organ weight.
The subject of another series is Colinus virginianus. The settings on record: acute, oral, diet, mortality.
Another series relates to Daphnia magna. The following applies: chronic/long-term; duration: 21 days; reproduction.
For a further series, the system named is Oryctolagus sp. The following applies: reproduction developmental; no effects.
Another series has as its system Lepomis macrochirus. The following applies: acute; duration: 96 hours; mortality.
For another series, the system named is Bibionidae. The settings on record: chronic/long-term; duration: 28 days; reproduction.
In a further series the test system is Pimephales promelas. The following applies: chronic/long-term; duration: 28 days; reproduction.
Another series has as its system Folsomia candida. The settings on record: chronic/long-term; duration: 28 days.
In another series the test system is Anas platyrhynchos. The settings on record: reproductive; duration: 20 weeks; oral; feed; M.
The next series has as its system Apis mellifera. The following applies: acute, mortality.
The subject of a further series is Aphidius rhopalosiphi. As to the kind of experiment: LR50; higher = less toxic. The settings on record: not reported; mortality.

These results are taken from EPA's ToxValDB 9.5 (doi:10.2903/j.efsa.2016.4452).

SMILES strings stand for the structures. Some results are limits rather than exact numbers.

Consider `O=c1[nH]c(-c2cc(Br)nn2-c2ncccc2Cl)nc2c(Br)cc(Cl)cc12` [Cyclaniliprole metabolite (NSY-28)], for which, in the series on Canidae, the LOAEL is 1.29 mg/kg-day.
Take `CC(NC(=O)c1cc(Cl)cc(Br)c1NC(=O)c1cc(Br)nn1-c1ncccc1Cl)C1CC1` (stereo not drawn) [Cyclaniliprole]: the LD50 in the series with Colinus virginianus (duration: 8 days) was more than 1000 mg/kg-day; in the series with Colinus virginianus (duration: 14 days), more than 2000 mg/kg-day; in the series with Rattus norvegicus (acute, oral, mortality), more than 2000 mg/kg-day; in the series on Apis mellifera (dermal), 0.486 µg/piece; in the series with Apis mellifera (oral, unspecified), 0.194 µg/piece. The NOEC turned out to be 0.015 mg/L in the series with Daphnia magna; 0.061 mg/kg in the series with Bibionidae; 0.2 mg/L in the series on Pimephales promelas; 1.25 mg/kg in the series with Folsomia candida; 500 mg/kg in the series with Tagia sp. (chronic/long-term, duration: 56 days). Moreover, the NOAEL was 1000 mg/kg-day in the series on Oryctolagus sp.; 1000 mg/kg-day in the series on Rattus norvegicus (reproduction developmental, no effects); 2.7 mg/kg-day with Anas platyrhynchos. Besides, the LC50 in the series on Lepomis macrochirus is more than 0.15 µg/mL; with Tagia sp. (acute, duration: 14 days, mortality) it was more than 500 mg/kg. The molecule also displayed an LOAEL with Canidae of 1.29 mg/kg-day. In the series with Aphidius rhopalosiphi, the LR50 came out at 0.507 g/ha.

The LOAEL is the lowest tested level that showed an adverse finding. For orientation: NOAEL means the highest dose or exposure tested at which no adverse effect was seen.
